Results taken from PubChem BioAssay AID2060484 (Molecular Pharmacology Branch, DTP, NCI, 2025).

Test system: SUM149PT spheroids with HUVEC/MSC, viability
Assay: Anticancer human tumor SUM149PT cell line growth inhibition [GQUAD];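 also: spheroids exposed to drugs for seven days before readout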;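 as to viability, T/C: percent viability relative to DMSO vehicle control taken as 100%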
Conditions: for IC50: curve of first compound; for viability, T/C: stronger effect = lower value
Summary of the method: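 Multi-cell-type spheroids of tumor cells with HUVEC and mesenchymal stem cells, treated with drug combinations. Concentrations descend in half-log steps from near clinical Cmax, or from 10 microM where Cmax is unknown; viability read-out.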

## CC[C@@]1(O)C(=O)OCc2c1cc1n(c2=O)Cc2cc3c(CN(C)C)c(O)ccc3nc2-1 + Cc1cnc(CNC(=O)c2c(=O)c3ccc(N4CCCN(C)CC4)nc3n3c2sc2ccccc23)cn1
Second compound 0.0316 µM
  IC50: 26.4 nM
Second compound 0.1 µM
  IC50: 18.7 nM
Second compound 0.316 µM
  IC50: 14.7 nM
Second compound 1 µM
  IC50: < 0.999 nM
Second compound 3.16 µM
  IC50: < 0.999 nM
Second compound 10 µM
  IC50: < 0.999 nM
Second compound 0.0316 µM, first compound 0.000999 µM
  viability, T/C: 90.4%
Second compound 0.0316 µM, first compound 0.00316 µM
  viability, T/C: 71.8%
Second compound 0.0316 µM, first compound 0.00999 µM
  viability, T/C: 77.7%
Second compound 0.0316 µM, first compound 0.0316 µM
  viability, T/C: 44.9%
Second compound 0.0316 µM, first compound 0.0999 µM
  viability, T/C: 36.1%
Second compound 0.0316 µM, first compound 0.316 µM
  viability, T/C: 40.4%
Second compound 0.1 µM, first compound 0.000999 µM
  viability, T/C: 60.9%
Second compound 0.1 µM, first compound 0.00316 µM
  viability, T/C: 66.8%
Second compound 0.1 µM, first compound 0.00999 µM
  viability, T/C: 56.8%
Second compound 0.1 µM, first compound 0.0316 µM
  viability, T/C: 43.5%
Second compound 0.1 µM, first compound 0.0999 µM
  viability, T/C: 44.7%
Second compound 0.1 µM, first compound 0.316 µM
  viability, T/C: 44.6%
Second compound 0.316 µM, first compound 0.000999 µM
  viability, T/C: 48.5%
Second compound 0.316 µM, first compound 0.00316 µM
  viability, T/C: 58.3%
Second compound 0.316 µM, first compound 0.00999 µM
  viability, T/C: 55.1%
Second compound 0.316 µM, first compound 0.0316 µM
  viability, T/C: 38.9%
Second compound 0.316 µM, first compound 0.0999 µM
  viability, T/C: 42%
Second compound 0.316 µM, first compound 0.316 µM
  viability, T/C: 45.1%
Second compound 1 µM, first compound 0.000999 µM
  viability, T/C: 38.5%
Second compound 1 µM, first compound 0.00316 µM
  viability, T/C: 44.6%
Second compound 1 µM, first compound 0.00999 µM
  viability, T/C: 45.5%
Second compound 1 µM, first compound 0.0316 µM
  viability, T/C: 41.5%
Second compound 1 µM, first compound 0.0999 µM
  viability, T/C: 37.4%
Second compound 1 µM, first compound 0.316 µM
  viability, T/C: 39.3%
Second compound 3.16 µM, first compound 0.000999 µM
  viability, T/C: 38.5%
Second compound 3.16 µM, first compound 0.00316 µM
  viability, T/C: 38%
Second compound 3.16 µM, first compound 0.00999 µM
  viability, T/C: 40.4%
Second compound 3.16 µM, first compound 0.0316 µM
  viability, T/C: 37.1%
Second compound 3.16 µM, first compound 0.0999 µM
  viability, T/C: 36.3%
Second compound 3.16 µM, first compound 0.316 µM
  viability, T/C: 35.1%
Second compound 10 µM, first compound 0.000999 µM
  viability, T/C: 0.4%
Second compound 10 µM, first compound 0.00316 µM
  viability, T/C: 11.1%
Second compound 10 µM, first compound 0.00999 µM
  viability, T/C: 9.79%
Second compound 10 µM, first compound 0.0316 µM
  viability, T/C: 11.4%
Second compound 10 µM, first compound 0.0999 µM
  viability, T/C: 2.25%
Second compound 10 µM, first compound 0.316 µM
  viability, T/C: 2.23%
